ChEMBL document CHEMBL5321224, “Antimicrobial peptides: Structure, mechanism, and modification” (2023)
Values belong to the compound of their own block, whether it stands above or below them. Activity calls are given as the source filed them. The calls are words filed in the database; no cut-off is given here.

Columns and labels:
Type in all cases: functional
Pseudomonas aeruginosa [1] = assay: Antimicrobial activity against Pseudomonas aeruginosa
Escherichia coli [2] = assay: Antimicrobial activity against Escherichia coli
Staphylococcus aureus [3] = assay: Antimicrobial activity against Staphylococcus aureus
Escherichia coli [4] = assay: Antimicrobial activity against Escherichia coli assessed as reduction of microbial growth incubated for 24 hrs
Staphylococcus aureus [5] = assay: Antimicrobial activity against Staphylococcus aureus assessed as reduction of microbial growth incubated for 24 hrs
Pseudomonas aeruginosa [6] = assay: Antimicrobial activity against Pseudomonas aeruginosa assessed as reduction of microbial growth incubated for 24 hrs
Escherichia coli [7] = assay: Antimicrobial activity against Escherichia coli assessed as reduction of microbial growth incubated for 18 to 24 hrs by microdilution method; conditions: time 18-24 hrs
Pseudomonas aeruginosa [8] = assay: Antimicrobial activity against Pseudomonas aeruginosa assessed as reduction of microbial growth incubated for 18 to 24 hrs by microdilution method; conditions: time 18-24 hrs
Staphylococcus aureus [9] = assay: Antimicrobial activity against Staphylococcus aureus assessed as reduction of microbial growth incubated for 18 to 24 hrs by microdilution method; conditions: time 18-24 hrs
Staphylococcus aureus [10] = assay: Antimicrobial activity against Staphylococcus aureus assessed as reduction of microbial growth
Pseudomonas aeruginosa [11] = assay: Antimicrobial activity against Pseudomonas aeruginosa assessed as reduction of microbial growth
Escherichia coli [12] = assay: Antimicrobial activity against Escherichia coli assessed as reduction of microbial growth
Staphylococcus aureus [13] = assay: Antimicrobial activity against Staphylococcus aureus assessed as reduction of microbial growth incubated overnight
Pseudomonas aeruginosa [14] = assay: Antimicrobial activity against Pseudomonas aeruginosa assessed as reduction of microbial growth incubated overnight
Escherichia coli [15] = assay: Antimicrobial activity against Escherichia coli assessed as reduction of microbial growth incubated overnight
Pseudomonas aeruginosa [16] = assay: Antimicrobial activity against Pseudomonas aeruginosa assessed as reduction of microbial growth incubated for 6 to 9 hr by macrodilution method; conditions: time 6-9 hrs
Staphylococcus aureus [17] = assay: Antimicrobial activity against Staphylococcus aureus assessed as reduction of microbial growth incubated for 6 to 9 hr by macrodilution method; conditions: time 6-9 hrs
Escherichia coli [18] = assay: Antimicrobial activity against Escherichia coli assessed as reduction of microbial growth incubated for 6 to 9 hr by macrodilution method; conditions: time 6-9 hrs

Compound: H-KWKLFKKIGAVLKVL-OH
LD (Pseudomonas aeruginosa [1]): 4 µM
LD (Escherichia coli [2]): 1 µM
LD (Staphylococcus aureus [3]): 2 µM

Compound: H-KWKLFKKIGIGAVLKVLK-OH
LD (Pseudomonas aeruginosa [1]): 3 µM
LD (Escherichia coli [2]): 0.5 µM
LD (Staphylococcus aureus [3]): 7 µM

Compound: H-KWKLFKKIEKVGQNIRDGGIGAVLKV-OH
LD (Escherichia coli [4]): 1 µM
LD (Staphylococcus aureus [5]): 600 µM
LD (Pseudomonas aeruginosa [6]): 15 µM

MIC (Escherichia coli [7]): 6.25 µg/mL
MIC (Pseudomonas aeruginosa [8]): 6.25 µg/mL
MIC (Staphylococcus aureus [9]): 12.5 µg/mL
Compound: H-KKKKKKKKKKGIGKFLHSAKKFGKAFVGEIMNS-OH

MIC (Staphylococcus aureus [10]): inactive
MIC (Pseudomonas aeruginosa [11]): inactive
MIC (Escherichia coli [12]): 200 µg/mL
Compound: H-FLHSAKKFGKAFVGEIMNS-OH

Compound: H-GIGKFLHSAKKFGKAFVGEIMNS-OH [MAGAININ 2]
MIC (Staphylococcus aureus [10]): inactive
MIC (Pseudomonas aeruginosa [11]): inactive
MIC (Escherichia coli [7]): 50 µg/mL
MIC (Escherichia coli [12]): 1 µg/mL
MIC (Pseudomonas aeruginosa [8]): 50 µg/mL
MIC (Staphylococcus aureus [9]): ≥ 100 µg/mL

Compound: CC[C@H](C)[C@H](NC(=O)CN)C(=O)NCC(=O)N[C@@H](C)C(=O)N[C@H](C(=O)N[C@@H](CC(C)C)C(=O)N[C@@H](CCCCN)C(=O)N[C@H](C(=O)N[C@@H](CC(C)C)C(=O)N[C@H](C(=O)N[C@H](C(=O)NCC(=O)N[C@@H](CC(C)C)C(=O)N1CCC[C@H]1C(=O)N[C@@H](C)C(=O)N[C@@H](CC(C)C)C(=O)N[C@H](C(=O)N[C@@H](CO)C(=O)N[C@@H](Cc1c[nH]c2ccccc12)C(=O)N[C@H](C(=O)N[C@@H](CCCCN)C(=O)N[C@@H](CCCNC(=N)N)C(=O)N[C@@H](CCCCN)C(=O)N[C@@H](CCCNC(=N)N)C(=O)N[C@@H](CCC(N)=O)C(=O)N[C@@H](CCC(N)=O)C(N)=O)[C@@H](C)CC)[C@@H](C)CC)[C@@H](C)O)[C@@H](C)O)C(C)C)C(C)C [MELITTIN]
LD (Staphylococcus aureus [13]): 0.2 µM
LD (Pseudomonas aeruginosa [14]): 3 µM
LD (Escherichia coli [15]): 0.8 µM

Compound: CC[C@@H](C)[C@H](NC(=O)[C@@H](NC(=O)CNC(=O)[C@H](CC(=O)O)NC(=O)[C@H](CCCNC(=N)N)NC(=O)[C@@H](NC(=O)[C@H](CC(N)=O)NC(=O)[C@H](CCC(N)=O)NC(=O)CNC(=O)[C@@H](NC(=O)[C@H](CCCCN)NC(=O)[C@H](CCC(=O)O)NC(=O)[C@@H](NC(=O)[C@H](CCCCN)NC(=O)[C@H](CCCCN)NC(=O)[C@H](Cc1ccccc1)NC(=O)[C@H](CC(C)C)NC(=O)[C@H](CCCCN)NC(=O)[C@H](Cc1c[nH]c2ccccc12)NC(=O)[C@@H](N)CCCCN)[C@@H](C)CC)C(C)C)[C@@H](C)CC)[C@@H](C)CC)C(=O)N[C@@H](CCCCN)C(=O)N[C@@H](C)C(=O)NCC(=O)N1CCC[C@H]1C(=O)N[C@@H](C)C(=O)N[C@H](C(=O)N[C@@H](C)C(=O)N[C@H](C(=O)N[C@H](C(=O)NCC(=O)N[C@@H](CCC(N)=O)C(=O)N[C@@H](C)C(=O)N[C@H](C(=O)N[C@@H](CCC(N)=O)C(=O)N[C@H](C(=O)N[C@@H](C)C(=O)N[C@@H](CCCCN)C(=O)O)[C@@H](C)CC)[C@@H](C)O)C(C)C)C(C)C)C(C)C
LD (Staphylococcus aureus [13]): >200 µM
LD (Pseudomonas aeruginosa [14]): 2 µM
LD (Escherichia coli [15]): 0.2 µM

MIC (Pseudomonas aeruginosa [16]): 25 µg/mL
MIC (Staphylococcus aureus [17]): 10 µg/mL
MIC (Escherichia coli [18]): 2.5 µg/mL
Compound: H-GIGKFLHAAKKFAKAFVAEIMNS-NH2

Compound: CC[C@H](C)[C@H](NC(=O)CN)C(=O)NCC(=O)N[C@@H](C)C(=O)N[C@H](C(=O)N[C@@H](CC(C)C)C(=O)N[C@@H](CCCCN)C(=O)N[C@H](C(=O)N[C@@H](CC(C)C)C(=O)N[C@H](C(=O)N[C@H](C(=O)NCC(=O)N[C@@H](CC(C)C)C(=O)N[C@@H](CCCCN)C(=O)N[C@@H](Cc1c[nH]c2ccccc12)C(=O)N[C@@H](CCCCN)C(=O)N[C@@H](CC(C)C)C(=O)N[C@@H](Cc1ccccc1)C(=O)N[C@@H](CCCCN)C(=O)N[C@@H](CCCCN)C(=O)N[C@H](C(=O)N[C@@H](CCC(=O)O)C(=O)N[C@@H](CCCCN)C(=O)N[C@H](C(=O)NCC(=O)N[C@@H](CCC(N)=O)C(=O)O)C(C)C)[C@@H](C)CC)[C@@H](C)O)[C@@H](C)O)C(C)C)C(C)C
LD (Staphylococcus aureus [13]): 5 µM
LD (Pseudomonas aeruginosa [14]): 5 µM
LD (Escherichia coli [15]): 1 µM

MIC (Escherichia coli [7]): 50 µg/mL
MIC (Pseudomonas aeruginosa [8]): 3.1 µg/mL
MIC (Staphylococcus aureus [9]): 3.1 µg/mL
Compound: H-GIGKFLHSAKKFGKAFVGEIMNSKKKKKKKKKK-OH

Compound: CC[C@H](C)[C@H](NC(=O)[C@H](CCCCN)NC(=O)[C@H](CCCCN)NC(=O)[C@H](Cc1ccccc1)NC(=O)[C@H](CC(C)C)NC(=O)[C@H](CCCCN)NC(=O)[C@H](Cc1c[nH]c2ccccc12)NC(=O)[C@@H](N)CCCCN)C(=O)N[C@@H](CCC(=O)O)C(=O)N[C@@H](CCCCN)C(=O)N[C@H](C(=O)NCC(=O)N[C@@H](CCC(N)=O)C(=O)NCC(=O)N[C@@H](C(=O)NCC(=O)N[C@@H](C)C(=O)N[C@H](C(=O)N[C@@H](CC(C)C)C(=O)N[C@@H](CCCCN)C(=O)N[C@H](C(=O)N[C@@H](CC(C)C)C(=O)N[C@H](C(=O)N[C@H](C(=O)NCC(=O)N[C@@H](CC(C)C)C(=O)O)[C@@H](C)O)[C@@H](C)O)C(C)C)C(C)C)[C@@H](C)CC)C(C)C
LD (Staphylococcus aureus [13]): 2 µM
LD (Pseudomonas aeruginosa [14]): 1 µM
LD (Escherichia coli [15]): 0.5 µM
